We go through four molecules from BindingDB's records for doi:10.3109/14756366.2013.765413 (Karunya University, 2014).

Assay [1] addresses T1, DNA topoisomerase I/type IB small subunit (Leishmania donovani, UniProt E9B7X3+E9BRC0).
T1 sequence (E9B7X3 whole entry): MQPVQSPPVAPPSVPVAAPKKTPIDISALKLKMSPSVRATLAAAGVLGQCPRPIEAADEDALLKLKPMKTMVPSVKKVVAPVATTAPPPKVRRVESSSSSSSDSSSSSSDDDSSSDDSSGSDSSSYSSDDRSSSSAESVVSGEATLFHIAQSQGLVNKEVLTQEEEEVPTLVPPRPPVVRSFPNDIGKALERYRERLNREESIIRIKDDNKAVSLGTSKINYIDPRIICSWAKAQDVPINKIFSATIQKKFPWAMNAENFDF
T1 sequence (E9BRC0 whole entry): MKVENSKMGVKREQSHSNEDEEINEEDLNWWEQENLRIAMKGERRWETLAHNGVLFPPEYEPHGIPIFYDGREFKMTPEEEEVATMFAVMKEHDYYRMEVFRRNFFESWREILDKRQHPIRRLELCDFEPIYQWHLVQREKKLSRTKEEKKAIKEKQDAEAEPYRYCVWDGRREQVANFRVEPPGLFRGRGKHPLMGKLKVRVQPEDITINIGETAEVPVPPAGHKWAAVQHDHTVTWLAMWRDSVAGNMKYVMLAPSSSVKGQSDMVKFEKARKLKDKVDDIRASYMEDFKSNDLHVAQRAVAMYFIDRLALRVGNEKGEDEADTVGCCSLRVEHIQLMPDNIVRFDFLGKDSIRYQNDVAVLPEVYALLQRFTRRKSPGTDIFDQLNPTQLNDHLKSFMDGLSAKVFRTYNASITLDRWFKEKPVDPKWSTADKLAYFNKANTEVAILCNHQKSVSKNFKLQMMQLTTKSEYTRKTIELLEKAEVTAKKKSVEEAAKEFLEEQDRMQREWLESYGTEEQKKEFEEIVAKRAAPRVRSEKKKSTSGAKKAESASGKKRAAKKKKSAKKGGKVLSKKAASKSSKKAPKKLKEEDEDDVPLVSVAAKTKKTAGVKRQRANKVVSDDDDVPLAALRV
As to the kind of experiment: Stimultaneous Relaxation Assay. As to conditions: pH 7.5. The method, then: (§1) In simultaneous relaxation assay, CPT concentrations were 50 and 100 μM, whereas concentration of compounds were 50, 100 and 200 μM. Relaxation assay was carried out as described previously with LdTOPILS serially diluted in the relaxation buffer (25mM Tris-HCl pH 7.5, 5% glycerol, 0.5mM DTT, 10mM MgCl2, 2.5mM EDTA and […]) supercoiled pBluescript (SK ) DNA and 50mM KCl. The amount of supercoiled monomer DNA band fluorescence after ethidium bromide (EtBr) ([…]) staining was quantitated by using GEL Doc 2000 from Biorad (Hercules, CA, USA).

The target in assay [2] is T1, DNA topoisomerase I/type IB small subunit. As to the kind of experiment: Preincubation Relaxation Assay. As to conditions: pH 7.5. The method, then:
as §1, with “In the preincubation” for “In simultaneous relaxation”, “whereas various concentrations” for “whereas concentration”, “were 25, 50 and” for “were 50,”, “100” for “100 and 200”, “μM. LdTOP1LS was preincubated with compounds 3a-d at different concentrations for 5 min at 37 °Cbefore the addition of substrate DNA.” for “μM.”

In the case of `O=C1C(O)=C(C(C2=C(O)C(=O)c3ccccc3C2=O)c2ccccc2)C(=O)c2ccccc21` [Bi-lawsone analog, 3a], the IC50 in assay [1] was 51 µM; in assay [2] it was 16 µM.

For `CN(C)c1ccc(C(C2=C(O)C(=O)c3ccccc3C2=O)C2=C(O)C(=O)c3ccccc3C2=O)cc1` [Bi-lawsone analog, 3b], in assay [1], the IC50 was found to be 37.5 µM.

Consider `COc1cc(C(C2=C(O)C(=O)c3ccccc3C2=O)C2=C(O)C(=O)c3ccccc3C2=O)ccc1O` [Bi-lawsone analog, 3c], for which, in assay [2], the 50% inhibitory concentration (IC50) came to 14 µM.

As to `O=C1C(O)=C(C(C2=C(O)C(=O)c3ccccc3C2=O)c2ccc(O)cc2)C(=O)c2ccccc21` [Bi-lawsone analog, 3d], the concentration for half-maximal inhibition (IC50) in assay [1] worked out at 70 µM; in assay [2] it was 13 µM.

One may read the IC50 as the midpoint of a concentration-inhibition curve.
